Results taken from PubChem BioAssay (NCI).
Several values for one entry are separate records, joined by “and”; a condition that tells them apart may be missing. Equal values may be shown once.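 Each compound was tested at five concentrations against cells in 96-well plates for 48 hours. At the GI50, growth is halved. TGI: total growth inhibition.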

Each molecule was assayed on MDA-MB-468 breast (assay: growth of human tumour cells (NCI), 48 h).

Going from `O[C@H](CN1CC1)[C@@H](O)CN1CC1` to `OC1CCN(CCCOc2c3ccccc3nc3c2oc2ccc(Cl)cc23)CC1`, the GI50 rises from 0.389 µM to 1.61 µM (4.1-fold).

First: O=C(c1ccccc1)c1ccccc1C(=O)c1ccccc1
Second: Cc1[nH]n(-c2ccccc2)c(=O)c1C(=O)c1ccccc1
The GI50 of the first is 1.6-fold higher: 28.7 µM for the first, 17.5 µM for the second.

First: N#CC1CCc2c(c(-c3cn[nH]c3C(F)(F)F)nc3c(F)cc4[nH]ncc4c23)C1 (stereo not drawn)
Second: Cc1ccc2cnc(N)c(C#Cc3cncc(C(=O)Nc4ccc(CN5CCN(C)CC5)c(C(F)(F)F)c4)c3)c2c1
The GI50 of the first is 3.3-fold higher: 2.19 µM for the first, 0.662 µM for the second.

`NS(=O)(=O)c1ccc(Nc2nc(N/N=C/c3ccccn3)nc(Nc3ccccc3)n2)cc1` and `COc1ccc(S(=O)(=O)n2c3ccccc3n3ncc(-c4nnc(C)o4)c23)cc1` are within 1.5-fold of each other in GI50: 0.318 µM for the first, 0.266 µM for the second.

First: C[C@H]1CC2=CC(=O)CC[C@]2(C)[C@H]2CC[C@@]3(C)[C@@H](CC[C@]3(C)O)[C@H]12
Second: C=C1C[C@@H]2[C@H](CC[C@]3(C)C(=O)CC[C@@H]23)[C@@]2(C)C=CC(=O)C=C12
The GI50 of the first is 2.3-fold higher: 33.9 µM for the first, 14.6 µM for the second.

Going from `O=C(Nc1cccc([N+](=O)[O-])c1)c1cc2ccccc2cc1O` to `Cc1cc(Cl)ccc1NC(=O)NC(C)(C)COC(=O)Nc1cccc(Cl)c1`, the GI50 rises from 2.32 µM to 4.61 µM (2-fold).

Going from `Brc1ccc2c(c1)c(-c1nc(-c3c[nH]c4ncccc34)cs1)cn2CCCN1CCCCC1` to `O=C(Nc1ccc(-c2ccnc(Nc3ccc(N4CCOCC4)cc3)n2)cc1)C1CCCN1` (stereo not drawn), the GI50 rises from 1.7 µM to 10.2 µM (6-fold).

Compared with `N#Cc1ncc(N2C(=O)C3(CCC3)N(c3ccc(OC4CCNCC4)nc3)C2=S)cc1C(F)(F)F`, `O=c1oc2cc(OS(=O)(=O)c3ccccc3)ccc2c2c1CCCCC2` is 3.4-fold lower in GI50: 9.8 µM for the first, 2.85 µM for the second.

Going from `Cc1ccc(S(=O)(=O)c2ccsc2N)cc1` to `CC1(C)N=C(N)N=C(N)N1c1ccc(OCCCCNC(=O)c2ccc(S(=O)(=O)F)cc2)c(Cl)c1`, the GI50 falls from 36.7 µM to 18.4 µM (2-fold).

Going from `O=c1[nH]cnc2nc(-c3ccc(N(CCCl)CCCl)cc3)[nH]c12` to `CCN(CC)CCOc1nc2cc(OC)c(OC)cc2c2c1-c1ccc(OC)cc1C2=O`, the GI50 falls from greater than 100 µM to 10.1 µM.

Compared with `NC(=S)N/N=C\c1nccc2c(C(F)(F)C(F)(F)C(F)(F)F)cccc12`, `O=C(O)c1ccc2cccnc2c1O` is 35-fold higher in GI50: 0.04 µM for the first, 1.41 µM for the second.

`COc1cc(CNC(=O)CCSc2nc3ccccc3c(=O)n2Cc2cc(OC)c(OC)c(OC)c2)cc(OC)c1OC` and `CCC(=O)OC1=CN2C(=NC(c3ccc(N)cc3)=CC2c2cc(OC)c(OC)c(OC)c2)S1` (stereo not drawn) are within 1.5-fold of each other in GI50: 2.35 µM for the first, 2.1 µM for the second.

Compared with `C=C(C)[C@@H]1CC[C@]2(C)[C@H](CC=C3[C@@H]4[C@H](C)[C@@H](C)CC[C@]4(CO)CC[C@]32C)[C@@]1(C)CCCN`, `COc1cc2c(cc1O)CC[C@@H]1C2CC[C@@]2(C)C1CC[C@@H]2O` (stereo partly drawn) is 38-fold higher in GI50: 0.819 µM for the first, 31.1 µM for the second.

Going from `CS(=O)(=O)Nc1cc(-c2ccc3ncnc(Nc4cccc(Cl)c4F)c3c2)cnc1Cl` to `CCCNc1cccc(-n2ncc3c(N/N=C/c4ccncc4)ncnc32)c1`, the GI50 falls from 1.28 µM to 0.768 µM (1.7-fold).

Compared with `C#CCOc1cccc(Nc2ncc3ncn(C4CCN(C(=O)CCl)C4)c3n2)c1` (stereo not drawn), `CN1CCc2c(sc3ncnc(N/N=C/c4ccc(Cl)c(Cl)c4)c23)C1` is 1.8-fold lower in GI50: 19.7 µM for the first, 10.9 µM for the second.

Compared with `Cc1ccc(/C=C2\CN(Cc3cn(CCNc4ccnc5cc(Cl)ccc45)nn3)C/C(=C\c3ccc(C)cc3)C2=O)cc1`, `Cc1nc2sc(C(=O)Nc3cccc(Cl)c3C)c(N)c2cc1C(C)O` (stereo not drawn) is 23-fold lower in GI50: 1.62 µM for the first, 0.0712 µM for the second.

First: CC[C@H](C)[C@H](NC(=O)c1nccn1C)C(=O)N(C)[C@H](C[C@@H](OC(C)=O)c1nc(C(=O)N[C@@H](Cc2ccccc2)C[C@H](C)C(=O)OC)cs1)C(C)C
Second: C=C1C(=O)O[C@H]2[C@H]1CC/C(COC(=O)/C=C/c1c[nH]c3ccccc13)=C\CC[C@@]1(C)O[C@@H]21
The GI50 of the first is 2.2-fold higher: 0.427 µM for the first, 0.196 µM for the second.

First: Cn1c(O)c(N=NC(N)=S)c2ccccc21
Second: FC(F)(F)c1cc(NC2=NCCN=C(Nc3cc(C(F)(F)F)cc(C(F)(F)F)c3)SS2)cc(C(F)(F)F)c1
The GI50 of the first is 9.9-fold higher: 20.4 µM for the first, 2.07 µM for the second.

First: O=S1(=O)CC(Br)C(Br)C1 (stereo not drawn)
Second: c1cc2ccc1CNCCN1CCNCc3ccc(cc3)Oc3ccc(cc3)CNCCN(CCNCc3ccc(cc3)O2)CCNCc2ccc(cc2)Oc2ccc(cc2)CNCC1
The GI50 of the first is 2.1-fold higher: 1.39 µM for the first, 0.673 µM for the second.

First: O[C@H](CN1CC1)[C@@H](O)CN1CC1
Second: OC1CCN(CCCOc2c3ccccc3nc3c2oc2ccc(Cl)cc23)CC1
The TGI of the first is 2.2-fold lower: 2.65 µM for the first, 5.71 µM for the second.

`O=C(c1ccccc1)c1ccccc1C(=O)c1ccccc1` and `Cc1[nH]n(-c2ccccc2)c(=O)c1C(=O)c1ccccc1` cannot be ordered by TGI: greater than 100 µM for the first, greater than 25 µM for the second.

First: N#CC1CCc2c(c(-c3cn[nH]c3C(F)(F)F)nc3c(F)cc4[nH]ncc4c23)C1 (stereo not drawn)
Second: Cc1ccc2cnc(N)c(C#Cc3cncc(C(=O)Nc4ccc(CN5CCN(C)CC5)c(C(F)(F)F)c4)c3)c2c1
The TGI of the first is 4.2-fold higher: 6.23 µM for the first, 1.47 µM for the second.

Going from `NS(=O)(=O)c1ccc(Nc2nc(N/N=C/c3ccccn3)nc(Nc3ccccc3)n2)cc1` to `COc1ccc(S(=O)(=O)n2c3ccccc3n3ncc(-c4nnc(C)o4)c23)cc1`, the TGI rises from 2.01 µM to 5.49 µM (2.7-fold).

Going from `C[C@H]1CC2=CC(=O)CC[C@]2(C)[C@H]2CC[C@@]3(C)[C@@H](CC[C@]3(C)O)[C@H]12` to `C=C1C[C@@H]2[C@H](CC[C@]3(C)C(=O)CC[C@@H]23)[C@@]2(C)C=CC(=O)C=C12`, the TGI falls from greater than 100 µM to 65.2 µM.

First: O=C(Nc1cccc([N+](=O)[O-])c1)c1cc2ccccc2cc1O
Second: Cc1cc(Cl)ccc1NC(=O)NC(C)(C)COC(=O)Nc1cccc(Cl)c1
The TGI of the first is 2.1-fold lower: 17.5 µM for the first, 36 µM for the second.

Going from `Brc1ccc2c(c1)c(-c1nc(-c3c[nH]c4ncccc34)cs1)cn2CCCN1CCCCC1` to `O=C(Nc1ccc(-c2ccnc(Nc3ccc(N4CCOCC4)cc3)n2)cc1)C1CCCN1` (stereo not drawn), the TGI rises from 3.25 µM to 26.3 µM (8.1-fold).

Compared with `N#Cc1ncc(N2C(=O)C3(CCC3)N(c3ccc(OC4CCNCC4)nc3)C2=S)cc1C(F)(F)F`, `O=c1oc2cc(OS(=O)(=O)c3ccccc3)ccc2c2c1CCCCC2` is higher in TGI: 24.6 µM for the first, greater than 100 µM for the second.

`Cc1ccc(S(=O)(=O)c2ccsc2N)cc1` and `CC1(C)N=C(N)N=C(N)N1c1ccc(OCCCCNC(=O)c2ccc(S(=O)(=O)F)cc2)c(Cl)c1` cannot be ordered by TGI: greater than 100 µM for the first, greater than 100 µM for the second.

Compared with `O=c1[nH]cnc2nc(-c3ccc(N(CCCl)CCCl)cc3)[nH]c12`, `CCN(CC)CCOc1nc2cc(OC)c(OC)cc2c2c1-c1ccc(OC)cc1C2=O` is lower in TGI: greater than 100 µM for the first, 23.1 µM for the second.

Going from `NC(=S)N/N=C\c1nccc2c(C(F)(F)C(F)(F)C(F)(F)F)cccc12` to `O=C(O)c1ccc2cccnc2c1O`, the TGI rises from 0.262 µM to 6.5 µM (25-fold).

Going from `COc1cc(CNC(=O)CCSc2nc3ccccc3c(=O)n2Cc2cc(OC)c(OC)c(OC)c2)cc(OC)c1OC` to `CCC(=O)OC1=CN2C(=NC(c3ccc(N)cc3)=CC2c2cc(OC)c(OC)c(OC)c2)S1` (stereo not drawn), the TGI falls from 9.67 µM to 6.32 µM (1.5-fold).

Compared with `C=C(C)[C@@H]1CC[C@]2(C)[C@H](CC=C3[C@@H]4[C@H](C)[C@@H](C)CC[C@]4(CO)CC[C@]32C)[C@@]1(C)CCCN`, `COc1cc2c(cc1O)CC[C@@H]1C2CC[C@@]2(C)C1CC[C@@H]2O` (stereo partly drawn) is higher in TGI: 1.66 µM for the first, greater than 100 µM for the second.

Going from `CS(=O)(=O)Nc1cc(-c2ccc3ncnc(Nc4cccc(Cl)c4F)c3c2)cnc1Cl` to `CCCNc1cccc(-n2ncc3c(N/N=C/c4ccncc4)ncnc32)c1`, the TGI rises from 3.44 µM to greater than 25 µM.

First: C#CCOc1cccc(Nc2ncc3ncn(C4CCN(C(=O)CCl)C4)c3n2)c1 (stereo not drawn)
Second: CN1CCc2c(sc3ncnc(N/N=C/c4ccc(Cl)c(Cl)c4)c23)C1
The TGI of the first is higher: greater than 62.5 µM for the first, 25.8 µM for the second.

`Cc1ccc(/C=C2\CN(Cc3cn(CCNc4ccnc5cc(Cl)ccc45)nn3)C/C(=C\c3ccc(C)cc3)C2=O)cc1` and `Cc1nc2sc(C(=O)Nc3cccc(Cl)c3C)c(N)c2cc1C(C)O` (stereo not drawn) are within 1.5-fold of each other in TGI: 3.72 µM for the first, 4.44 µM for the second.

First: CC[C@H](C)[C@H](NC(=O)c1nccn1C)C(=O)N(C)[C@H](C[C@@H](OC(C)=O)c1nc(C(=O)N[C@@H](Cc2ccccc2)C[C@H](C)C(=O)OC)cs1)C(C)C
Second: C=C1C(=O)O[C@H]2[C@H]1CC/C(COC(=O)/C=C/c1c[nH]c3ccccc13)=C\CC[C@@]1(C)O[C@@H]21
The TGI of the first is higher: greater than 33.3 µM for the first, 0.404 µM for the second.

First: Cn1c(O)c(N=NC(N)=S)c2ccccc21
Second: FC(F)(F)c1cc(NC2=NCCN=C(Nc3cc(C(F)(F)F)cc(C(F)(F)F)c3)SS2)cc(C(F)(F)F)c1
The TGI of the first is higher: greater than 100 µM for the first, 7.45 µM for the second.

Compared with `O=S1(=O)CC(Br)C(Br)C1` (stereo not drawn), `c1cc2ccc1CNCCN1CCNCc3ccc(cc3)Oc3ccc(cc3)CNCCN(CCNCc3ccc(cc3)O2)CCNCc2ccc(cc2)Oc2ccc(cc2)CNCC1` is 1.8-fold lower in TGI: 3.82 µM for the first, 2.09 µM for the second.

`CC(C)(F)C[C@H](N[C@@H](c1ccc(-c2ccc(S(C)(=O)=O)cc2)cc1)C(F)(F)F)C(=O)NC1(C#N)CC1` was tested, and the GI50 was 54.4 µM and > 100 µM.

With `CC(C)(F)C[C@H](N[C@@H](c1ccc(-c2ccc(S(C)(=O)=O)cc2)cc1)C(F)(F)F)C(=O)NC1(C#N)CC1` the TGI was 55 µM and > 100 µM.
